Source: patent US7078499B2, “Nucleotide analogues comprising a reporter moiety and a polymerase enzyme blocking moiety” (GE Healthcare UK Limited, priority 2000, dated 2006)

Assays:
Format in all cases: biochemical
[1] = test system: Thermosequenase II; test: Thermostable polymerase under reverse transcription conditions, TS II; design: key to result of incorporation (termination / further chain extension): T: Incorporation results in termination; E: Incorporation permits further chain extension; T/E: Predominant product is primer extended by one base, but evidence of some further extension also observed; details: RNA template, 2.5 mM Manganese ions; for primer extended by at least one base within assay time (grade): Tth reaction buffer
Method: (§1) DNA polymerase assays were performed using Sequence 1 as primer and Sequence 2 as template. • Sequence 1 5′[Cy3]TAACTCATTAACAGGATC 3′ • Sequence 2 5′AT TCGCGGTATTCTGGTATGAAGCTTTTAGATCCTGTTAATGAGTTA GTA3′
(§2) The template (Sequence 2) was designed such that the base (underlined) immediately adjacent to the 3′ end of the hybridised primer is complementary to the nucleotide test compound. Nucleotide test compounds were compounds (6) (4′-C-(glycylaminomethyl)thymidine triphosphate), (8) (4′-C-(N-trifluoroacetyaminomethyl)thymidine triphosphate) and (9) (4′-C-(aminomethyl)thymidine triphosphate) as described above.
(§3) Primer extension reactions were performed using the above primers in the presence of 40 to 80 μM of nucleotide triphosphates. Positive control reactions contained all four native nucleotide triphosphates. For the other reactions the TTP was replaced with either a 2:1 ratio of […] for the terminator control, or entirely by the test compound The enzymes were used at a final concentration of 0.175 units/μl and a magnesium ion concentration of 2.5 mM in buffers supplied by the manufacturer. The primer and template concentrations were 0.5 pmol/μl and 2 pmol/μl respectively.
(§4) Extension reactions with thermophilic enzymes were performed by initially denaturing the fully assembled reactions at 70° C. for 5 min. followed by 45° C. for 20–40 minutes. The following enzymes were used: Taq DNA polymerase (Taq); Thermosequenase (TS); Thermosequenase II (TSII); Thermosequenase E (TSE), Tfl DNA polymerase (Tfl); Tth DNA polymerase (Tth), deltaTts DNA polymerase (deltaTts), deltaTts D DNA polymerase (dettaTTSD) (all from APBiotech); Pfu DNA polymerase (Pfu) (Stratagene Ltd); Vent™ DNA polymerase (Vent) (New England Biolabs).
(§5) Reverse transcriptase reactions were performed essentially as described above for thermophilic and mesophilic enzymes. The template for these reactions was the RNA equivalent of sequence 2. All the thermophilic enzymes were assayed in Tth reaction buffer (Cambio Ltd, Cambridge UK) containing 2.5 mM Manganese ions. The following enzymes were used: Thermosequenase (TS1); Thermosequenase II (TSII); delta Tts DNA polymerase (deltaTts); delta Tts D DNA polymerase (deltaTtsD) (all from APBiotech); Retrotherm reverse transcriptase (Retroth) (Cambio Ltd); Tth DNA polymerase (Tth) (Cambio Ltd.).
(§6) The reactions were stopped by adding a 0.5 volume aliquot of 80% formamide containing 0.1% (w/v) bromophenol blue and 0.1% (w/v) cresol blue. The reaction products were separated by denaturing gel electrophoresis at a constant power of 45 W on 16% polyacrylamide gels containing 50% urea.
(§7) Gels were scanned for Cy3 fluorescence on a Molecular Dynamics Fluorimager and the data analysed using Molecular Dynamics ImageQuant 5 software.
(§8) The incorporation of a test nucleotide triphosphate results in the appearance on a polyacrylamide gel of a single band corresponding to a single base extension product. If, however, the enzyme adds additional bases then further bands would be observed that corresponded to either the full-length product or positions of other complementary bases in the template.

[2] = target: T1, Tfl DNA polymerase (Thermus thermophilus, UniProt P30313); test: Thermostable DNA polymerase primer extension, Tfl; design: key to result of incorporation (termination / further chain extension): T: Incorporation results in termination; E: Incorporation permits further chain extension; T/E: Predominant product is primer extended by one base, but evidence of some further extension also observed; details: DNA template, 45° C. for 20–40 minutes; for primer extended by at least one base within assay time (grade): TTP replaced entirely by test compound
T1 construct: purchased APBiotech
T1 sequence (P30313 whole entry): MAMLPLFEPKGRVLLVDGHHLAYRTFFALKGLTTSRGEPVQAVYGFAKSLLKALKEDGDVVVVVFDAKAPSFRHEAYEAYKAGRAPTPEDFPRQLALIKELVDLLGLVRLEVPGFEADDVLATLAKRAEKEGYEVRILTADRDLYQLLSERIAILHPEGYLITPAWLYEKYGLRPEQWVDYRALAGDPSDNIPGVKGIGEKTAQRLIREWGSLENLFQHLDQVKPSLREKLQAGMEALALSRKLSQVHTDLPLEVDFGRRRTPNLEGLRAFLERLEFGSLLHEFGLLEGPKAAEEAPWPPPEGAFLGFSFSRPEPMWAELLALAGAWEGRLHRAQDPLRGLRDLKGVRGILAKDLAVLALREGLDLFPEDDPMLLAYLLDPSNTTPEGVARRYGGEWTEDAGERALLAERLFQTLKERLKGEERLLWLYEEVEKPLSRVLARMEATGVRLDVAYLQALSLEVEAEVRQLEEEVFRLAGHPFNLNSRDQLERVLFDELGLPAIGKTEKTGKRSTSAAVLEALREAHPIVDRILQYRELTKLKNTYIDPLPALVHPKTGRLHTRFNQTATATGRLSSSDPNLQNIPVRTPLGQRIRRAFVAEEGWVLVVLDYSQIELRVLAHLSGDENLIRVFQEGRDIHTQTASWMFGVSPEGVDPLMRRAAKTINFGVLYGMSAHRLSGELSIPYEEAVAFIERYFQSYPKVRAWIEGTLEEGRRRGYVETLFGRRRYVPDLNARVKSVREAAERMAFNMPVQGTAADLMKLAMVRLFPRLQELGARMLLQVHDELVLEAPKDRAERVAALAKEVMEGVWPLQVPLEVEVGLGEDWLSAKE
Method: as §1, §2, §3, §4, §6, §7, §8

[3] = test system: delta Tts D DNA polymerase; test: Thermostable polymerase under reverse transcription conditions, delta TtsD; design: key to result of incorporation (termination / further chain extension): T: Incorporation results in termination; E: Incorporation permits further chain extension; T/E: Predominant product is primer extended by one base, but evidence of some further extension also observed; key to primer extended by at least one base within assay time (grade): −: No extension within assay time; +/−: up to 25% of primer extended by at least one base within assay time; +: up to 50% of primer extended by at least one base within assay time; ++: up to 75% of primer extended by at least one base within assay time; +++: essentially all primer extended by at least one base within assay time; details: RNA template, 2.5 mM Manganese ions; for primer extended by at least one base within assay time (grade): Tth reaction buffer
Method: as §1, §2, §3, §4, §5, §6, §7, §8

[4] = target: T2, Tth DNA polymerase (Thermus thermophilus, UniProt P52028); test: Thermostable polymerase under reverse transcription conditions, Tth; design: key to result of incorporation (termination / further chain extension): T: Incorporation results in termination; E: Incorporation permits further chain extension; T/E: Predominant product is primer extended by one base, but evidence of some further extension also observed; key to primer extended by at least one base within assay time (grade): −: No extension within assay time; +/−: up to 25% of primer extended by at least one base within assay time; +: up to 50% of primer extended by at least one base within assay time; ++: up to 75% of primer extended by at least one base within assay time; +++: essentially all primer extended by at least one base within assay time; details: RNA template, 2.5 mM Manganese ions; for primer extended by at least one base within assay time (grade): Tth reaction buffer
T2 construct: purchased APBiotech
T2 sequence (P52028 whole entry): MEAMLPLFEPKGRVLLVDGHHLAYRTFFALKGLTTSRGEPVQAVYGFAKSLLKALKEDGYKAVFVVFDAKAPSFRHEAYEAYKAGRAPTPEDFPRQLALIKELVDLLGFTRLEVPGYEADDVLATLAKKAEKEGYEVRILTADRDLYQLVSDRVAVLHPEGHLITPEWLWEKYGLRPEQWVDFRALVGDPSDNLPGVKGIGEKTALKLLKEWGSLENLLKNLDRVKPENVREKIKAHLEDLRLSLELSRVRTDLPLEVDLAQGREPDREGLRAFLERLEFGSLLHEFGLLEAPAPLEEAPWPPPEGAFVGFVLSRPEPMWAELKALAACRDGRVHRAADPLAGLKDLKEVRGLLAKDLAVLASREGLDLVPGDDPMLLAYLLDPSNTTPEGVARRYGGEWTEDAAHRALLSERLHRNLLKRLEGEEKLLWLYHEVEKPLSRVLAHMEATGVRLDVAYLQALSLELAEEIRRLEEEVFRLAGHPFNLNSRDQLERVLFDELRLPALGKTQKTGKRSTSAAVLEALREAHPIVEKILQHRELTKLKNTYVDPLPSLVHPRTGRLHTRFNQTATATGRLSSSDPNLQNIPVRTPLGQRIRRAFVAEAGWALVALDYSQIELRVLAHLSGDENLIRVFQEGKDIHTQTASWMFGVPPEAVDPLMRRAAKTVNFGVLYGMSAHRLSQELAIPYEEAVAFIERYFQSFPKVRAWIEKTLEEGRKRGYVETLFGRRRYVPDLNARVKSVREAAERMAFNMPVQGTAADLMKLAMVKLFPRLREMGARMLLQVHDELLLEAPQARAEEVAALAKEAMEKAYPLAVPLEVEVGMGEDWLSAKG
Method: as §1, §2, §3, §4, §5, §6, §7, §8

[5] = target: T3, T7 DNA polymerase (Escherichia phage T7, UniProt P00581); test: Mesophilic DNA polymerase primer extension, T7; design: key to result of incorporation (termination / further chain extension): T: Incorporation results in termination; E: Incorporation permits further chain extension; T/E: Predominant product is primer extended by one base, but evidence of some further extension also observed; details: DNA template, 37° C. for 20–40 minutes; for primer extended by at least one base within assay time (grade): TTP replaced entirely by test compound
T3 construct: purchased AP Biotech
T3 sequence (P0AA25 2-109): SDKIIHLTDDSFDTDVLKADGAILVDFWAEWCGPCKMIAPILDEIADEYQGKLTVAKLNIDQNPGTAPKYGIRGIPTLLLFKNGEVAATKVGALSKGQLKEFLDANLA
T3 sequence (P00581 whole entry): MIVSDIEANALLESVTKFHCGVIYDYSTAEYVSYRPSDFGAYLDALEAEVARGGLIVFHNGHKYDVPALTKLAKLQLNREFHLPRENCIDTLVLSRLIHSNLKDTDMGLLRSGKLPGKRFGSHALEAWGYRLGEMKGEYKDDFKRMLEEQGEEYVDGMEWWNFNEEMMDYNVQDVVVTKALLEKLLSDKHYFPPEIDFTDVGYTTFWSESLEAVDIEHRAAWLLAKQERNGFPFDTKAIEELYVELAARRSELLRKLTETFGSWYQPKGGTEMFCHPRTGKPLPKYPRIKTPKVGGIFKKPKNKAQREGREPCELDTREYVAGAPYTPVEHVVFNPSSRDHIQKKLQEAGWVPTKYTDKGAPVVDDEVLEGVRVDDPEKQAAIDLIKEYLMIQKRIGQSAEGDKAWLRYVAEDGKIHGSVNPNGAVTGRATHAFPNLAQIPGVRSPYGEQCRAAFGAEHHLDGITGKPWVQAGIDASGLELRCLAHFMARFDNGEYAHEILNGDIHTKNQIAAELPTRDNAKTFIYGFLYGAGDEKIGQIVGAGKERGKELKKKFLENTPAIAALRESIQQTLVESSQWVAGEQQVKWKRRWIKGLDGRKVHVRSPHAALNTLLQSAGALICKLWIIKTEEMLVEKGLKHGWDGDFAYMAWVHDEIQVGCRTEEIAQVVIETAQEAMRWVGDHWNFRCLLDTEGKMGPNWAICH
Method: as §1, §2, §3
Extension reactions preformed with mesophilic polymerases were carried out by mixing all the components of the reaction except the enzyme and heating to 70° C. for 5 min. After the reactions had cooled to room temperature 0.175 units of the enzyme were added and the reactions heated to 37° C. for 20–40 minutes. The following enzymes were used: T7 DNA polymerase (T7); Sequenase 2™ (Seq); Klenow fragment of DNA polymerase 1 (Klen); phi-29 DNA polymerase (Phi-29); T4 DNA polymerase (T4) (all from AP Biotech) and Bst DNA polymerase (Bst) (Cambio Ltd).
as §6, §7, §8

[6] = test system: Retrotherm reverse transcriptase; test: Thermostable polymerase under reverse transcription conditions, Retroth.; design: key to result of incorporation (termination / further chain extension): T: Incorporation results in termination; E: Incorporation permits further chain extension; T/E: Predominant product is primer extended by one base, but evidence of some further extension also observed; key to primer extended by at least one base within assay time (grade): −: No extension within assay time; +/−: up to 25% of primer extended by at least one base within assay time; +: up to 50% of primer extended by at least one base within assay time; ++: up to 75% of primer extended by at least one base within assay time; +++: essentially all primer extended by at least one base within assay time; details: RNA template, 2.5 mM Manganese ions; for primer extended by at least one base within assay time (grade): Tth reaction buffer
Method: as §1, §2, §3, §4, §5, §6, §7, §8

| Compound | result of incorporation (termination / further chain extension) [1] | primer extended by at least one base within assay time (grade) [1] | result of incorporation (termination / further chain extension) [2] | primer extended by at least one base within assay time (grade) [2] | result of incorporation (termination / further chain extension) [3] | primer extended by at least one base within assay time (grade) [3] | result of incorporation (termination / further chain extension) [4] | primer extended by at least one base within assay time (grade) [4] | result of incorporation (termination / further chain extension) [5] | primer extended by at least one base within assay time (grade) [5] | result of incorporation (termination / further chain extension) [6] | primer extended by at least one base within assay time (grade) [6] |
| --- | --- | --- | --- | --- | --- | --- | --- | --- | --- | --- | --- | --- |
| 4′-C-(Aminomethyl)thymidine triphosphate [compound (9)] | E | ++ (up to 75% of primer extended by at least one base within assay time) | T | +/− (up to 25% of primer extended by at least one base within assay time) | E | +++ | T | +++ | T/E | +/− (up to 25% of primer extended by at least one base within assay time) | E | +++ |
| 4′-C-(Glycylaminomethyl)thymidine triphosphate [compound (6)] | E | + (up to 50% of primer extended by at least one base within assay time) | T | +/− (up to 25% of primer extended by at least one base within assay time) | E | +++ | T | +++ | T/E | +/− (up to 25% of primer extended by at least one base within assay time) | E | ++ (up to 75% of primer extended by at least one base within assay time) |
| Cc1cn([C@H]2C[C@H](O)[C@@](CNC(=O)C(F)(F)F)(COP(=O)(O)OP(=O)(O)OP(=O)(O)O)O2)c(=O)[nH]c1=O [compound (8), 4′-C-(N-trifluoroacetylaminomethyl)thymidine triphosphate] | E | + (up to 50% of primer extended by at least one base within assay time) | T | +/− (up to 25% of primer extended by at least one base within assay time) | E | +++ | T | +++ | T/E | +/− (up to 25% of primer extended by at least one base within assay time) | E | ++ (up to 75% of primer extended by at least one base within assay time) |
